Measurements as given in ChEMBL document CHEMBL3885861, “Open TG-GATES”.

Organism: Rattus norvegicus
Assay: Open TG-GATES - Regimen: Daily Repeat
Assay type: toxicity, organism-based, Sprague-Dawley
Design: regimen Daily Repeat, gender Male, age 6 weeks
Details: in vivo, po, 100 mg/kg, route gavage, dose level Low; for APTT / Bas / Eos / Fbg / Hb / Ht / Lym / MCH / MCHC / MCV / Mono / Neu / PT / Plat / RBC / Ret / WBC: tissue Blood; for KIDNEY_L / KIDNEY_R / KIDNEY_TOTAL: tissue Kidney; for LIVER: tissue Liver; for A/G / ALP / ALT / AST / BUN / CRE / Ca / Cl / DBIL / GLC / IP / K / LDH / Na / PL / RALB / TBIL / TC / TG / TP / gamma-GTP: tissue Plasma

For CCCCNC(=O)NS(=O)(=O)c1ccc(C)cc1 [TOLBUTAMIDE], the TERMINAL_BW (72 h, time 3 day) was 233.9 g, the APTT (72 h, time 3 day) was 20.4 s and the Bas (72 h, time 3 day) was 0.2%. For the same compound, the Eos (72 h, time 3 day) was 1.2%, the Fbg (72 h, time 3 day) was 283.2 mg/dL and the Hb (72 h, time 3 day) was 13.7 g/dL. It also gave a Ht (72 h, time 3 day) of 42%, a Lym (72 h, time 3 day) of 80.2% and an MCH (72 h, time 3 day) of 20.2 pg. The MCHC (72 h, time 3 day) was 32.7%, the MCV (72 h, time 3 day) was 61.9 fL and the Mono (72 h, time 3 day) was 2.2%. For the same compound, the Neu (72 h, time 3 day) was 15.8%, the PT (72 h, time 3 day) was 13.2 s and the Plat (72 h, time 3 day) was 118.8 x10_4/uL. The RBC (72 h, time 3 day) was 680.4 x10_4/ul, the Ret (72 h, time 3 day) was 5.8% and the WBC (72 h, time 3 day) was 98.1 x10_2/uL. For the same compound, the KIDNEY_L (72 h, time 3 day) was 1 g, the KIDNEY_R (72 h, time 3 day) was 1 g and the KIDNEY_TOTAL (72 h, time 3 day) was 2 g. It also gave an LIVER (72 h, time 3 day) of 11.3 g, an A/G (72 h, time 3 day) of 0.9 and an ALP (72 h, time 3 day) of 1905.6 IU/L. The ALT (72 h, time 3 day) was 46.2 IU/L, the AST (72 h, time 3 day) was 73.8 IU/L and the BUN (72 h, time 3 day) was 15 mg/dL. For the same compound, the CRE (72 h, time 3 day) was 0.2 mg/dL, the Ca (72 h, time 3 day) was 11.1 mg/dL and the Cl (72 h, time 3 day) was 104.6 meq/L. For the same compound, the DBIL (72 h, time 3 day) was 0.01 mg/dL, the GLC (72 h, time 3 day) was 180.4 mg/dL and the IP (72 h, time 3 day) was 8.4 mg/dL. The K (72 h, time 3 day) was 3.9 meq/L, the LDH (72 h, time 3 day) was 68.8 IU/L and the Na (72 h, time 3 day) was 142.6 meq/L. It also gave a PL (72 h, time 3 day) of 156.4 mg/dL, an RALB (72 h, time 3 day) of 2.6 g/dL and a TBIL (72 h, time 3 day) of 0.058 mg/dL. The TC (72 h, time 3 day) was 77 mg/dL, the TG (72 h, time 3 day) was 99.4 mg/dL and the TP (72 h, time 3 day) was 5.5 g/dL. It also gave a gamma-GTP (72 h, time 3 day) of 1 IU/L, a TERMINAL_BW ([…], time 7 day) of 273.5 g and a TERMINAL_BW ([…], time 14 day) of 313.3 g. The TERMINAL_BW ([…], time 28 day) was 400.3 g, the APTT ([…], time 7 day) was 16.9 s and the Bas ([…], time 7 day) was 0%. For the same compound, the Eos ([…], time 7 day) was 1%, the Fbg ([…], time 7 day) was 303.2 mg/dL and the Hb ([…], time 7 day) was 13.6 g/dL. For the same compound, the Ht ([…], time 7 day) was 40.9%, the Lym ([…], time 7 day) was 74.4% and the MCH ([…], time 7 day) was 20.4 pg. It also gave an MCHC ([…], time 7 day) of 33.2%, an MCV ([…], time 7 day) of 61.4 fL and a Mono ([…], time 7 day) of 2%. The Neu ([…], time 7 day) was 21.8%, the PT ([…], time 7 day) was 12.5 s and the Plat ([…], time 7 day) was 130 x10_4/uL. For the same compound, the RBC ([…], time 7 day) was 667 x10_4/ul, the Ret ([…], time 7 day) was 5.4% and the WBC ([…], time 7 day) was 123.8 x10_2/uL. It also gave an APTT ([…], time 14 day) of 18.6 s, a Bas ([…], time 14 day) of 0.2% and an Eos ([…], time 14 day) of 0.8%. It also gave a Fbg ([…], time 14 day) of 284.2 mg/dL, a Hb ([…], time 14 day) of 14.2 g/dL and a Ht ([…], time 14 day) of 43.5%. For the same compound, the Lym ([…], time 14 day) was 81%, the MCH ([…], time 14 day) was 19.5 pg and the MCHC ([…], time 14 day) was 32.6%. The MCV ([…], time 14 day) was 60 fL, the Mono ([…], time 14 day) was 1.8% and the Neu ([…], time 14 day) was 15.8%. For the same compound, the PT ([…], time 14 day) was 13.2 s, the Plat ([…], time 14 day) was 120.7 x10_4/uL and the RBC ([…], time 14 day) was 726.6 x10_4/ul. It also gave a Ret ([…], time 14 day) of 4.1%, a WBC ([…], time 14 day) of 100.3 x10_2/uL and an APTT ([…], time 28 day) of 17.5 s. The Bas ([…], time 28 day) was 0.6%, the Eos ([…], time 28 day) was 1.2% and the Fbg ([…], time 28 day) was 287.2 mg/dL. For the same compound, the Hb ([…], time 28 day) was 15.6 g/dL, the Ht ([…], time 28 day) was 46.6% and the Lym ([…], time 28 day) was 80.4%. It also gave an MCH ([…], time 28 day) of 18.8 pg, an MCHC ([…], time 28 day) of 33.5% and an MCV ([…], time 28 day) of 56.1 fL. It also gave a Mono ([…], time 28 day) of 2.4%, a Neu ([…], time 28 day) of 14.8% and a PT ([…], time 28 day) of 13.5 s. For the same compound, the Plat ([…], time 28 day) was 102.7 x10_4/uL, the RBC ([…], time 28 day) was 831.6 x10_4/ul and the Ret ([…], time 28 day) was 2.4%. For the same compound, the WBC ([…], time 28 day) was 116.4 x10_2/uL, the KIDNEY_L ([…], time 7 day) was 1.2 g and the KIDNEY_R ([…], time 7 day) was 1.2 g. It also gave a KIDNEY_TOTAL ([…], time 7 day) of 2.3 g, a KIDNEY_L ([…], time 14 day) of 1.2 g and a KIDNEY_R ([…], time 14 day) of 1.2 g. The KIDNEY_TOTAL ([…], time 14 day) was 2.4 g, the KIDNEY_L ([…], time 28 day) was 1.3 g and the KIDNEY_R ([…], time 28 day) was 1.3 g. The KIDNEY_TOTAL ([…], time 28 day) was 2.7 g, the LIVER ([…], time 7 day) was 12.8 g and the LIVER ([…], time 14 day) was 13.1 g. It also gave an LIVER ([…], time 28 day) of 15.8 g, an A/G ([…], time 7 day) of 0.9 and an ALP ([…], time 7 day) of 1801.2 IU/L. For the same compound, the ALT ([…], time 7 day) was 43.8 IU/L, the AST ([…], time 7 day) was 68 IU/L and the BUN ([…], time 7 day) was 17.6 mg/dL. It also gave a CRE ([…], time 7 day) of 0.2 mg/dL, a Ca ([…], time 7 day) of 10.9 mg/dL and a Cl ([…], time 7 day) of 104.4 meq/L. The DBIL ([…], time 7 day) was 0.01 mg/dL, the GLC ([…], time 7 day) was 197.4 mg/dL and the IP ([…], time 7 day) was 7.9 mg/dL. The K ([…], time 7 day) was 4.1 meq/L, the LDH ([…], time 7 day) was 55.6 IU/L and the Na ([…], time 7 day) was 141.8 meq/L. It also gave a PL ([…], time 7 day) of 165.2 mg/dL, an RALB ([…], time 7 day) of 2.6 g/dL and a TBIL ([…], time 7 day) of 0.056 mg/dL. For the same compound, the TC ([…], time 7 day) was 79.6 mg/dL, the TG ([…], time 7 day) was 138.4 mg/dL and the TP ([…], time 7 day) was 5.5 g/dL. For the same compound, the gamma-GTP ([…], time 7 day) was 1.2 IU/L, the A/G ([…], time 14 day) was 0.8 and the ALP ([…], time 14 day) was 1429.8 IU/L. It also gave an ALT ([…], time 14 day) of 37.2 IU/L, an AST ([…], time 14 day) of 67.4 IU/L and a BUN ([…], time 14 day) of 16.8 mg/dL. For the same compound, the CRE ([…], time 14 day) was 0.2 mg/dL, the Ca ([…], time 14 day) was 10.7 mg/dL and the Cl ([…], time 14 day) was 104.6 meq/L. The DBIL ([…], time 14 day) was 0.014 mg/dL, the GLC ([…], time 14 day) was 196.2 mg/dL and the IP ([…], time 14 day) was 7.1 mg/dL. It also gave a K ([…], time 14 day) of 3.8 meq/L, an LDH ([…], time 14 day) of 60.8 IU/L and a Na ([…], time 14 day) of 143.2 meq/L. It also gave a PL ([…], time 14 day) of 135 mg/dL, an RALB ([…], time 14 day) of 2.6 g/dL and a TBIL ([…], time 14 day) of 0.062 mg/dL. For the same compound, the TC ([…], time 14 day) was 61.6 mg/dL, the TG ([…], time 14 day) was 141.6 mg/dL and the TP ([…], time 14 day) was 5.7 g/dL. The gamma-GTP ([…], time 14 day) was 1.2 IU/L, the A/G ([…], time 28 day) was 0.8 and the ALP ([…], time 28 day) was 1233.8 IU/L. For the same compound, the ALT ([…], time 28 day) was 38 IU/L, the AST ([…], time 28 day) was 63.8 IU/L and the BUN ([…], time 28 day) was 17.8 mg/dL. For the same compound, the CRE ([…], time 28 day) was 0.3 mg/dL, the Ca ([…], time 28 day) was 10.7 mg/dL and the Cl ([…], time 28 day) was 105.2 meq/L. It also gave a DBIL ([…], time 28 day) of 0.012 mg/dL, a GLC ([…], time 28 day) of 188.6 mg/dL and an IP ([…], time 28 day) of 6.7 mg/dL. The K ([…], time 28 day) was 3.9 meq/L, the LDH ([…], time 28 day) was 49.8 IU/L and the Na ([…], time 28 day) was 143 meq/L. For the same compound, the PL ([…], time 28 day) was 151.2 mg/dL, the RALB ([…], time 28 day) was 2.7 g/dL and the TBIL ([…], time 28 day) was 0.058 mg/dL. The TC ([…], time 28 day) was 68.8 mg/dL, the TG ([…], time 28 day) was 174.6 mg/dL and the TP ([…], time 28 day) was 6.2 g/dL. For the same compound, the gamma-GTP ([…], time 28 day) was 1 IU/L.
